{"source": "patent US8476455B2", "about": "“1-N-phenyl-amino-1h-imidazole derivatives and pharmaceutical compositions containing them” (Laboratoire Theramex, priority 2003, dated 2013)", "key": {"steroid sulfatase": {"system": "steroid sulfatase", "assay": "Anti uterotrophic/anti steroid sulfatase activity in vivo", "set-up": "species or system rat", "description": "Wistar female rats were ovariectomized and left to rest for 4 weeks. Prior to treatment, the absence of cyclicity was checked by vaginal smears. Animals were supplemented with estrone sulfate (EIS) at 50 μg/kg/day s.c., alone or combined with oral administration of potential sulfatase inhibitors, at 1 mg/kg/day for 4 days. The uteri were removed, freed of adjacent tissue and wet weighed (Table 3).\nEstrone sulfatase activity is measured according to the method described by Purohit et al., with slight modifications. Briefly, uteri were thawed, weighed and homogenized. Aliquots of the supernatant were treated with dextran-coated charcoal and assayed for sulfatase. E1S activity is assessed after 30 min of incubation with 5 nM of ^3H-E1S and 20 μM of unlabelled E1S as substrate. Estrone sulfatase activity is expressed as pmol/h/mg protein and reported as percentage of inhibition vs E1S; for uterus weights, results are expressed as % of inhibition of the E1S induced stimulation"}, "MCF7 cells": {"system": "MCF7 cells", "assay": "ER+ human breast tumor tissue xenografted into nude rats", "type": "in vivo, nude rat (Rnu/Rnu)", "conditions": "for Volume variations (expressed as % of E1S positive control group): oral 5 mg/kg/day, nude rats supplemented with E1S", "description": "MCF7 cells (ATCC), derived from human breast adenocarcinoma, were injected subcutaneously in ovariectomized athymic nude mice supplemented with a daily administration of subcutaneous estradiol. Xenograft volumes were determined weekly. After 8 weeks, tumor volumes reached 1000 mm3, providing 500 mg samples of estrogen responsive tissues for each animals. At this time each tumor was sliced and regrafted into naïve ovariectomized nude rat (Rnu/Rnu). Then animals were treated with estrone sulfate as precursor of estradiol by the steroid sulfatase pathway. When tumor volumes reached significant increase, distinct from the placebo, animals were randomized and separated in two groups. The first group was treated with Ex 45 and supplemented with daily administration of estrone sulfate. The second one was sham administered with the vehicle and supplemented with the same dosage of estrone sulfate. Ex 45 was orally administered at 5 mg/kg/day for 5 weeks. Xenografts were measured weekly by electronic Caliper and compared to the estrone sulfate group. (Table 5)."}, "Ishikawa cells": {"system": "Ishikawa cells", "assay": "Alkaline phosphatase activity in Ishikawa cells (estrogenic potency)", "type": "cell-based", "conditions": "hydrochloride", "description": "Ishikawa cells were plated into 96-well microplates 48 hours before studies. The next day, the medium was replaced by phenol red free medium supplemented with 5% charcoal-stripped dFCS. 24 hours later, the medium was renewed and compounds were added to the plated cells and incubated for an additional four-day period. […] At the end of the incubation period, alkaline phosphatase activity (APase) was assayed by a method involving the hydrolysis of p-nitrophenyl phosphate to p-nitrophenol and spectrophotometric determination of the product at 405 nm.\nIn brief, the microplates were first rinsed twice with cold phosphate buffered solution and then placed at −80° C. for at least 15 minutes. After thawing at room temperature, 50 μl ice-cold solution containing 5 mM p-nitrophenyl phosphate was added to each well. After a 15 to 60 minute incubation period at room temperature, the intensity of the yellow color generated by the production of p-nitrophenol was measured into each well at 405 nm.\nFor each tested concentration, APase activity, reflected by absorbance, was first expressed as fold increase over control (FI) and then as percentage of E2 activity (10^-8 M) chosen equal to 100%."}}, "note": "Entries after “also recorded” stand apart in the source; their conditions may differ."}
{"smiles": "Cl.N#Cc1ccc(N(Cc2ccc(OS(N)(=O)=O)c(Br)c2)n2ccnc2)cc1", "note": "[Ex 45, Sulfamic acid 2-bromo-4-{[N-(4-cyanophenyl)-N-(1H-imidazol-1yl)amino]methyl}phenyl ester, hydrochloride]", "values": [{"measurement": "inhibition of E1S (sulfatase) concluded from uterus weight inhibition", "setting": "steroid sulfatase; concluded from linear correlation between sulfatase inhibition and uterus weight inhibition (WO 2004/101545)", "result": "> 90", "unit": "%"}, {"measurement": "% inhibition (uterus weight)", "setting": "steroid sulfatase; ovariectomized Wistar female rats, E1S 50 μg/kg/day s.c., oral 1 mg/kg/day for 4 days, % of inhibition of the E1S induced stimulation", "result": 70, "unit": "%"}, {"measurement": "Volume variations (expressed as % of E1S positive control group)", "setting": "MCF7 cells; Day 7", "result": 0, "unit": "%"}, {"measurement": "Volume variations (expressed as % of E1S positive control group)", "setting": "MCF7 cells; Day 28", "result": "−26", "unit": "%"}, {"measurement": "Volume variations (expressed as % of E1S positive control group)", "setting": "MCF7 cells; Day 35", "result": "−44", "unit": "%"}, {"measurement": "Volume variations (expressed as % of E1S positive control group)", "setting": "MCF7 cells; Day 42", "result": "−39", "unit": "%"}, {"measurement": "decrease in tumor volume", "setting": "MCF7 cells; at the end of the experiments, after five weeks of daily treatment, 5 mg/kg/day oral", "result": 40, "unit": "%"}, {"measurement": "tumor volumes (in words)", "setting": "MCF7 cells; vs groups only treated with estrone sulfate (E1S)", "result": "did not increased"}, {"measurement": "estrogenicity in vitro (in words)", "setting": "Ishikawa cells", "result": "not estrogenic; also recorded: lack of estrogenicity"}]}
